Results from US20240140991A1, “ANTIBIOTIC NATURAL PRODUCT ANALOGUES” (THE QUEEN'S UNIVERSITY OF BELFAST, priority 2021, published 2024).
In brackets after ≈: the same amount, converted by molar mass. Positions of bridges follow the written chain, without caps; N, C: chain ends. Non-standard residues stand in square brackets, D forms with d. Residues, ends and D or L forms follow the SMILES beside them. *: point of attachment. Octanoyl(7-Me) = CC(C)CCCCCC(=O)*; dOrn = NCCC[C@@H](N)C(=O)O; Orn = NCCC[C@H](N)C(=O)O; Dap = NC[C@H](N)C(=O)O

Legend:
[1] = tested on: Escherichia coli ATCC 25922; format: cell-based; settings: in vitro activity quoted in the in vivo section
Procedure, shortened: (§1)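 Broth microdilution in MHB per CLSI; inoculum 2×10^5 CFU mL^−1 from log-phase TSB cultures at OD600 0.5. Plates incubated 16 hours at 37° C with shaking at 220 rpm. MIC is the lowest concentration preventing visible growth.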

K. pneumoniae JS-123 = format: cell-based, Klebsiella pneumoniae; settings: JS-123
Procedure, shortened: as §1

A. baumannii MDR = format: cell-based, Acinetobacter baumannii; settings: A. baumannii MDR clinical isolate
Procedure, shortened: as §1

P. aeruginosa M-120 = format: cell-based, Pseudomonas aeruginosa; settings: M-120
Procedure, shortened: as §1

HepG2 cells = assay: Cytotoxicity MTT assay; settings: HepG2, 128 μg/mL, 24 h
Experimental: In addition to a single vehicle control, compounds (diluted from DMSO stock) were added to each well to obtain in a final 128 μg/mL concentration (max. final DMSO concentration 0.5%) for all compounds except for oritavancin which was administered at 50 μM. Incubation was done for 24 h at 37° C., 7% CO2. After the incubation, MTT was added to each well at a final concentration of 0.40 mg/mL. The plates were then incubated for 2 h at 37° C., 7% CO2. Medium was carefully removed via suction, and purple formazan crystals were resuspended in 100 μL DMSO. Absorbance was read at 570 nm using a Clariostar plate reader. The data was then analysed with GraphPad Prism software. Technical triplicates for each condition were used, along with biological duplicates.

[2] = In vivo tolerability study; parameters: species or system mice (ICR, CD1); settings: subcutaneous, 3 doses at 8-h intervals, up to 40 mg/kg (total daily dose 120 mg/kg), naive mice
Experimental: Animal Strain: Mice used in these studies were supplied by Charles River (Margate UK) and were specific pathogen free. The strain of mice used was ICR (also known as CD1 Mice) which is a well characterized outbred murine strain. Mice (male) were 11-15 g on receipt and were allowed to acclimatise for at least 7 days.
Test compounds: Compound 6 (i.e. laterocidamide) was dissolved in water for injection in which it formed a clear colourless solution. Polymyxin B was dissolved in saline for injection to produce a clear colourless solution.
Tolerability study: The tolerability of compound 6 was assessed in the same mouse strain used for the efficacy studies. […] The mice used in the tolerability study were naïve and were not immunosuppressed or infected.

E. coli ATCC 25922 = assay: Mouse thigh abscess (neutropenic thigh infection) efficacy model; format: in vivo, mice (ICR, CD1)
Experimental: Efficacy study: The in vivo efficacy of compound 6 was assessed in a mouse thigh abscess model where both thighs of each mouse were infected with E. coli ATCC 25922 Immunosuppression: Mice were rendered neutropenic with subcutaneous injections of cyclophosphamide at 150 mg/kg 4 days before infection and 100 mg/kg 1 day before infection. The immunosuppression regime leads to neutropenia starting 24 h post administration of the first injection, which continues throughout the study.
Infection: The bacterial strain used was E. coli ATCC 25922. An aliquot of a previously prepared frozen stock of the strain was thawed and diluted in sterile PBS to the desired inoculum just prior to infection. […]
Endpoints: 1 h and 20.5 (planned 25) h post-infection, the clinical condition of all animals was assessed prior to humane euthanasia using pentobarbitone overdose, and the thighs were removed and weighed. Thigh samples were homogenized in 3 mL ice cold sterile PBS; the homogenates were quantitatively cultured onto CLED agar and incubated at 37° C. for 18-24 h before colonies were counted.
Data analysis: The data from the culture burdens were analysed using appropriate non-parametric statistical models (Kruskal-Wallis using Conover-Inman to make all pairwise comparisons between groups) with StatsDirect software v. […]

With `CC[C@H](C)[C@@H]1NC(=O)[C@@H](NC(=O)[C@H](Cc2c[nH]c3ccccc23)NC(=O)[C@@H](CCCN)NC(=O)CNC(=O)[C@H](CCCN)NC(=O)[C@@H](CCCN)NC(=O)[C@@H](Cc2c[nH]c3ccccc23)NC(=O)[C@@H](Cc2ccc(O)cc2)NC(=O)[C@@H](CO)NC(=O)CCCCCC(C)C)CNC(=O)CNC(=O)CNC(=O)[C@H](CC(N)=O)NC1=O` [Laterocidamide, laterocidamide] ({Octanoyl(7-Me)}-[dS][dY][dW][dOrn][Orn]G[dOrn]W[Dap]INGG; lactam 9-C) the MIC values against E. coli ATCC 25922 [1] was 1 µg/mL (≈ 0.629 µM), the “Minimum inhibitory concentration (MIC)” value (K. pneumoniae JS-123) was no more than 0.5 µg/mL and the “Minimum inhibitory concentration (MIC)” value (A. baumannii MDR) was 4 µg/mL (≈ 2.52 µM). The “Minimum inhibitory concentration (MIC)” value (P. aeruginosa M-120) was 2 to 4 µg/mL, the “cytotoxicity / cell viability” value (HepG2 cells) was “completely non-toxic” and the “cytotoxicity / cell viability” value (HepG2 cells; listed as compound 6) was “low cytotoxicity”. The tolerability ([2]; listed as Compound 6) was “good tolerability”, the tolerability ([2]; listed as compound 6) was “well tolerated” and the “reduction in bacterial load relative to the untreated group” value (E. coli ATCC 25922; 40 mg/kg SC q8h, neutropenic mice, thigh burden) was roughly 5 log. For the same compound, the “dose response of thigh burden” value (E. coli ATCC 25922; 10, 20 and 40 mg/kg SC q8h) was “clear dose response”.
